Entries after “also recorded” stand apart in the source; their conditions may differ.
Assays:
[1] = test system: NSCLC patients without sensitizing EGFR mutations or ALK rearrangements; test: Expansion cohort 2: response (RECIST v1.1); assay type: in vivo, human
Source text: (§1) Patients had to meet all of the following inclusion criteria before they will be allowed to participate in the trial: • 1. For the dose escalation part: Patients with relapsed or refractory cancer of the ovary, cervix, endometrium, thyroid, non-small cell lung cancer (NSCLC), or melanoma (cutaneous, mucosal, acral or uveal melanoma) who have failed available standard therapy or who are not candidates for standard therapy, and for whom, in the opinion of the investigator, experimental therapy with HuMax-AXL-ADC may be beneficial. • For the expansion part: Patients with relapsed or refractory, advanced and/or metastatic cancer who were not candidates for standard therapy, and for whom, in the opinion of the investigator, experimental therapy with HuMax-AXL-ADC could be beneficial. […] Cohorts 1 and 2 included non-small cell lung cancer patients who had failed anticancer therapy as follows: • Expansion Cohort 1 (NSCLC patients with classical sensitizing EGFR mutations and/or other EGFR resistance mutations targeted by third generation TKIs (e.g. T790M for osimertinib)): • NSCLC patients after failure of up to 4 prior treatment regimens containing systemic therapy for metastatic disease • adjuvant and maintenance treatment is considered being part of one treatment regimen. • Documented progressive disease on or after last prior treatment • Last prior treatment to enrolment to GCT1021-01 should have been: • an EGFR inhibitor (e.g. Erlotinib, Osimertinib, etc.), • or a PD-1/PD-L1 inhibitor, • or a platinum-based doublet chemotherapy. • Expansion Cohort 2 (NSCLC patients without sensitizing EGFR mutations or ALK rearrangements) • NSCLC patients after failure of up to 4 prior treatment regimens containing systemic therapy for metastatic disease. • adjuvant and maintenance treatment is considered being part of one treatment regimen. • Documented progressive disease on or after last prior treatment. • Last prior treatment to enrolment to GCT1021-01 should have been • a PD-1/PD-L1 inhibitor. • or a chemotherapy (containing platinum, and/or taxane, and/or pemetrexed, and/or gemcitabine). • For the following conditions in Expansion Cohorts 1-2, the sponsor medical officer's approval of enrolment was needed: • if documented progression had not been on measurable disease (i.e. symptomatic progression). • if last prior treatment to enrolment was a combination therapy which contained an EGFR inhibitor or a PD-1/PD-L1 inhibitor. • if last prior treatment to enrolment contain chemotherapies other than platinum, and/or taxane, and/or pemetrexed, and/or gemcitabine (only applicable for NSCLC patients without sensitizing EGFR mutations or ALK rearrangements). • 2. […] In the dose escalation part all patients were required provide a tumor tissue sample (Formalin Fixed Paraffin Embedded blocks/slides) from archival tissue or fresh biopsy collected before Cycle 1, Visit 1, preferably derived from advanced disease stage. In the expansion part all patients were required to provide a fresh biopsy (aspirates were not acceptable) taken after failure/stop of last prior treatment. Furthermore the latest available tumor tissue sample had to be collected if available. • 4. Age 18 years. • 5. Have an acceptable renal function defined as: • Glomerular filtration rate (GFR)≥40 mL/min/1.73 m^2—e.g., according to the abbreviated Modification of Diet in Renal Disease (MDRD) equation: GFR=186×(SCr^−1.154)×(age^−0.203)(where SCr, the serum creatinine level, is expressed in mg/dL; multiply it by 0.742 if the patient was female; multiply it by 1.212, if the patient was African-American^3). • Not being on dialysis. • 6. Have an acceptable liver function defined as: • Alanine aminotransferase (ALT) and aspartate aminotransferase (AST)≤3 times the ULN; if liver tumor/metastases were present, then ≤5×ULN was allowed. • Bilirubin≤1.5×ULN, except in patients diagnosed with Gilbert's syndrome, direct bilirubin≤2×ULN. • 7. […]

[2] = test system: non-small cell lung andenocarcinoma patients; test: Subject examples: treatment emerging events; assay type: in vivo, human; conditions: listed as enapotamab vendotin
Source text: (§2) Primary Endpoints • Dose Limiting Toxicities (DLTs) • Adverse events (AEs): incidences of AEs, serious adverse events (SAEs), infusion-related AEs, grade 3 AEs, and AEs related to IMP during the trial.

[3] = test system: non-small cell lung andenocarcinoma; test: Subject examples: tumor assessments by scan (RECIST 1.1); assay type: in vivo, human
Protocol: (§3) Response in solid tumor cancers was assessed in accordance with the RECIST criteria version 1.1^18 and for patients with ovarian cancer according to RECIST 1.1 in combination with CA 125 as defined by the Gynecological Cancer Intergroup^2.
Tumor shrinkage (based on CT-scan evaluations) was listed and summarized, per source (radiologist, central read).

cynomolgus monkeys = test: Toxicokinetic and toxicology data in cynomolgus monkeys; assay type: in vivo
[4] = Phase I dose escalation: PK parameters; assay type: in vivo, human; conditions: across doses/schedules
Source text: (§4) Secondary Endpoints • Safety laboratory parameters (hematology and biochemistry). • PK parameters (clearance, volume of distribution and area-under-the-concentration-time curve [AUC0-Clast and AUC0-∞], maximum concentration [Cmax], time of Cmax [Tmax], pre dose values, and half-life of HuMax-AXL-ADC and free toxin monomethyl auristatin E [MMAE]). • Immunogenicity of HuMax-AXL-ADC (anti-drug antibodies). • Anti-tumor activity measured by tumor shrinkage (based on computerized tomography [CT]-scan evaluations), as well as change in CA 125 in patients with ovarian cancer and change in prostate specific antigen (PSA) in patients with castration-resistant prostate cancer (CRPC). • Objective Response, Progression-Free Survival (PFS), Duration of Response (DoR) and Overall survival (OS). • Axl expression in the tumor biopsy.

[5] = test system: patients with solid tumors; test: Phase I dose escalation: DLTs, MTD, RP2D, adverse events; assay type: in vivo, human
Source text: The present study was an open label, multi-center Phase I/IIa safety trial of HuMax AXL ADC in a mixed population of patients with solid tumors known from the literature to overexpress Axl and where the use of systemic tubulin inhibitors is part of Standard of Care (SoC). The trial consisted of two parts; a dose escalation part (phase I, first-in-human (FIH)) and an expansion part (phase IIa).
The dose escalation part consists of two, staggered, arms for identification of the most optimal dosing regimen: • 1Q3W: Dosing once every 3 weeks • 3Q4W: Weekly dosing for 3 weeks followed by one treatment-free week.
The 1Q3W dose escalation evaluated HuMax-AXL-ADC at seven main dose levels: 0.3, 0.6, 1.0, 1.5, 2.0, 2.4 and 2.8 mg/kg, and 4 optional intermediate dose levels 1.25, 1.8, 2.2 and 2.6 mg/kg. Further escalation with steps of 0.4 mg/kg and de-escalation by 0.2 mg/kg was allowed, if the MTD had not been declared at a dose level up to 2.8 mg/kg.
In the 1Q3W dose escalation the patients received 1 infusion of HuMax-AXL-ADC every three weeks as according to FIG. 2.
The 3Q4W dose escalation was conducted as a standard 3 (+3) design which evaluatedHuMax-AXL-ADC at doses of (0.45), 0.6, 0.8, 1.0, 1.2 and 1.4 mg/kg. The escalation was allowed to continue to higher dose levels with increments up to 20%, if the 1.4 mg/kg was reached without significant safety concerns and it was considered safe to escalate above 1.4 mg/kg, the. The starting dose was expected to be 0.6 mg/kg (a dose level of 0.45 mg/kg could be added) and as an additional precaution, the independent Data Monitoring Committee (DMC) could recommend intermediate dose levels at any step during dose escalation.
In the 3Q4W dose escalation the patients received weekly dosing for 3 weeks followed by one treatment-free week according to FIG. 3. Patients were treated until disease progression or unacceptable toxicity was observed.
as §2

[6] = test system: patients with solid tumors; test: Dose escalation: anti-tumor response (RECIST v1.1); assay type: in vivo, human; conditions: for patients with a partial response: 1Q3W arm
Source text: as §4, §3
In the dose escalation, response evaluation was performed by the investigator and sponsor. In the expansion, response evaluation was performed by the investigator and sponsor as well as a group of external medical experts. Each patient was assigned one of the following categories:
Patients in response categories 1 and 2 were considered responders and patients in response categories 4 and 5 were considered as failing to respond to treatment (disease progression). Patients in response categories 1, 2 and 3 were considered to be in disease control.

[7] = test system: EGFR mutated NSCLC patients; test: Expansion cohort 1: response (RECIST v1.1); assay type: in vivo, human
Source text: as §1, with “5.” for “5. Have an acceptable renal function defined as: • Glomerular filtration rate (GFR)≥40 mL/min/1.73 m^2—e.g., according to the abbreviated Modification of Diet in Renal Disease (MDRD) equation: GFR=186×(SCr^−1.154)×(age^−0.203)(where SCr, the serum creatinine level, is expressed in mg/dL; multiply it by 0.742 if the patient was female; multiply it by 1.212, if the patient was African-American^3). • Not being on dialysis. • 6. Have an acceptable liver function defined as: • Alanine aminotransferase (ALT) and aspartate aminotransferase (AST)≤3 times the ULN; if liver tumor/metastases were present, then ≤5×ULN was allowed. • Bilirubin≤1.5×ULN, except in patients diagnosed with Gilbert's syndrome, direct bilirubin≤2×ULN. • 7.”

[8] = 34 patients treated in expansion
[9] = 36 patients treated with 2.2 mg/kg (escalation+expansion)
[10] = of 34 patients treated in expansion
[11] = of 36 patients treated with 2.2 mg/kg (escalation+expansion)

## Enapotamab vedotin [HuMax-AXL-ADC]
[1]; [8]
  DCR: 47%
  Objective Response Rate (ORR) (confirmed): 11%
[1]; [9]
  DCR: 50%
  ORR (confirmed): 13.8%
[1]; [10]
  patients with BoR of PD: 7
  patients with BoR of SD: 12
  patients with BoR of confirmed PR: 4
[1]; [11]
  patients with BoR of PD: 7
  patients with BoR of SD: 13
  patients with BoR of confirmed PR: 5
[2]; Subject 401
  Treatment emerging events (grade, relatedness): urinary tract infection (G2, unrelated); also recorded: creatinine kinase increase (fluctuating between G1 and G2, possibly related); also recorded: muscle cramps (G1, possibly related); also recorded: worsening of cough (G2, unrelated); also recorded: ALT increase and AST increase (both G1 and unrelated); also recorded: dysphonia and left leg weakness, both events reported as G1 and possibly related
[2]; Subject 403
  Treatment emerging events (grade, relatedness): two episodes of nausea (both Gland possibly related); also recorded: skin and subcutaneous tissue disorder (G1, not related); also recorded: constipation (G2, related); also recorded: two episodes of anorexia (G1, first episode unrelated, second episode possibly related); also recorded: gastroesophageal reflux (G1, not related); also recorded: alopecia (G1, related); also recorded: AST increase (G1, possibly related)
[3]; Subject 401, C2D15
  decrease in sum of diameters compared to screening: 15%
[3]; Subject 401, C2D15, screening 26 mm
  sum of diameters of target lesions: 22 mm
[3]; Subject 401, C4D15
  decrease in sum of diameters compared to screening: 34.6%
[3]; Subject 401, C4D15, screening 26 mm
  sum of diameters of target lesions: 17 mm
[3]; Subject 401, C6D15
  decrease in sum of diameters compared to screening: 57.6%
[3]; Subject 401, C6D15, screening 26 mm
  sum of diameters of target lesions: 11 mm
[3]; Subject 403, C2D15
  decrease in sum of diameters compared to screening: 19.3%
[3]; Subject 403, C2D15, screening 88 mm
  sum of diameters of target lesions: 71 mm
[3]; Subject 403, C4D15
  decrease in sum of diameters compared to screening: 35.2%
[3]; Subject 403, C6D15
  decrease in sum of diameters compared to screening: 36.4%
[3]; Subject 403, second post-baseline scan (C4D15), screening 88 mm
  sum of diameters of target lesions: 57 mm
[3]; Subject 403, third post-baseline scan (C6D15), screening 88 mm
  sum of diameters of target lesions: 56 mm
[3]; Subject 406, C2D15
  decrease in sum of diameters compared to screening: 46.8%
[3]; Subject 406, C2D15, screening 32 mm
  sum of diameters of target lesions: 17 mm
Cynomolgus monkeys; cynomolgus monkey, in vivo
  recovery of neutrophils, thrombocytes and red blood cell parameters: adequate recovery
Cynomolgus monkeys; cynomolgus monkeys
  safety profile: acceptable safety profile
[4]
  median elimination half-life: 22 to 52.8 h
[5]; 1Q3W arm
  Maximum Tolerated Dose (MTD): 2.2 mg/kg
[5]; 1Q3W dosing regime
  Recommended Phase 2 Dose (RP2D): 2.2 mg/kg
[5]; 3Q4W arm
  Maximum Tolerated Dose (MTD): 1.0 mg/kg
[5]; 47 patients enrolled
  number of DLTs: 6
[5]; % of 47 patients
  Adverse Effects (any grade): constipation: 57%
  Adverse Effects (any grade): decreased appetite: 43%
  Adverse Effects (any grade): diarrhea: 47%
  Adverse Effects (any grade): fatigue: 64%
  Adverse Effects (any grade): nausea: 57%
  Adverse Effects (any grade): vomiting: 45%
[6]; NSCLC, 2.2 mg/kg dose
  patients with a partial response: 1
[6]; all tumor types
  patients with a partial response: Three
[6]; ovarian, 1.5 and 2.4 mg/kg dose levels
  patients with a partial response: 2
[6]; single agent, pre-treated patients with solid tumors
  antitumor activity: encouraging preliminary antitumor activity
[7]; 18 patients treated
  Disease Control Rate (DCR): 39%
  Objective Response Rate (unconfirmed): 5.5%
[7]; of 18 patients treated
  patients with Best Overall Response (BoR) of unconfirmed PR: 1
  patients with BoR of PD: 6
  patients with BoR of SD: 6
